Values of other authors as cited in patent US7838544B2, “Heterocyclic inhibitors of 11-β hydroxyl steroid dehydrogenase type 1 and methods of using the same” (Incyte Corporation, priority 2006, dated 2010).

Biological target: T1, 11βHSD1 in the eye (Homo sapiens, UniProt P28845)
T1 construct: host or cells: eye of healthy volunteers, in vivo (11βHSD1 localized to non-pigmented epithelial cells)
Conditions: healthy volunteers, after seven days of carbenoxolone treatment

T1 sequence (P28845 whole entry): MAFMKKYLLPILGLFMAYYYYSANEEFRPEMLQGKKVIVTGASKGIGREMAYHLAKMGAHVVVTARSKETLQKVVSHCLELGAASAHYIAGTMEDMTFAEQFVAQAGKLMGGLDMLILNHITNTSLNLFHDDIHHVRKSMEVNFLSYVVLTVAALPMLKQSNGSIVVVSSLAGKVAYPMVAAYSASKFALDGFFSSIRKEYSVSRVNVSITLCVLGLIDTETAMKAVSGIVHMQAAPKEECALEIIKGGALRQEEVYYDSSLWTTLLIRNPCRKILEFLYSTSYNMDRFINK

## CC1(C)[C@@H](OC(=O)CCC(=O)O)CC[C@]2(C)[C@H]3C(=O)C=C4[C@@H]5C[C@@](C)(C(=O)O)CC[C@]5(C)CC[C@@]4(C)[C@]3(C)CC[C@@H]12 [carbenoxolone]
  reduction of intra-ocular pressure (IOP): 18%
